Experiments:
[1] = system: MV4-11; test: Resazurin proliferation assay, leukaemia cell line; assay type: cell-based; settings: Homo sapiens, 72 h, read-out: Antiproliferative activity GI50 MV4-11
From the text: (§1) Representative compounds from Example 1, were subjected to standard MTT (3-(4,5-dimethylthiazol-2-yl)-2,5-diphenyltetrazolium bromide) and resazurin assays on solid tumour cell lines (including GBM cell lines) and leukemia cell lines, respectively, as previously reported (Wang S et al., J Med Chem 47:1662-1675, 2004; and Diab S. et al. CheMedChem 9:962-972, 2014).

[2] = system: Colo205; test: MTT proliferation assay, colorectal; assay type: cell-based; settings: Homo sapiens, COLO 205, 72 h, read-out: Antiproliferative activity GI50 Colo205
From the text: as §1

[3] = system: U251; test: MTT proliferation assay, glioblastoma; assay type: cell-based; settings: Homo sapiens, U-251, 72 h, read-out: Antiproliferative activity GI50 U251
Procedure: (§2) All three GBM cell lines used in this example, namely U87, U251 and T98G, were cultured in Eagle's Minimum Essential Medium (EMEM) with 10% fetal bovine serum in 75 cm^2 flasks at 37° C. and 5% CO2. All cell lines were confirmed to be mycoplasma-free prior to any experiment setup.
as §1

[4] = system: U87; test: MTT proliferation assay, glioblastoma; assay type: cell-based; settings: Homo sapiens, U-87 MG, 72 h, read-out: Antiproliferative activity GI50 U87
Procedure: as §2, §1

[5] = system: H460; test: MTT proliferation assay, lung; assay type: cell-based; settings: Homo sapiens, NCI-H460, 72 h, read-out: Antiproliferative activity GI50 H460
From the text: as §1

[6] = system: A2780; test: MTT proliferation assay, ovarian; assay type: cell-based; settings: Homo sapiens, 72 h, read-out: Antiproliferative activity GI50 A2780
From the text: as §1

[7] = system: LNCap; test: MTT proliferation assay, prostate; assay type: cell-based; settings: Homo sapiens, 72 h, read-out: Antiproliferative activity GI50 LNCap
From the text: as §1

[8] = system: GBM U87 cells; test: Annexin V/PI apoptosis assay; assay type: cell-based; settings: 5 μM, 48 hours, with or without 5 μM TMZ
Procedure: The ability of compound 1 to induce apoptosis in GBM cells was investigated using the annexin V-FITC apoptosis detection kit I (BD Pharmingen Inc.; San Diego, Calif., United States of America) according to the manufacturer's protocol. Cell pellets were washed twice with 1 mL cold PBS and centrifuged at 300×g for 5 mins. Following the removal of supernatants, cell pellets were stained with 100 μL 1× annexin V binding buffer, 3 μL annexin V-FITC and 3 μL propidium iodide staining solution, and incubated in the dark at room temperature for 15 mins. The percentage of apoptic cells was measured by a CytoFLEX flow cytometer.

[9] = system: phosphorylated Rb proteins (pRb Ser780, pRbSer795, pRb807/811); test: Western blot analysis of Rb phosphorylation; assay type: cell-based; settings: 24 h treatment, FIG. 3A
Procedure: Cells were seeded at a density of 3×10^5 with 10 mL fresh medium on a sterile culture dish and incubated at 37° C. 5% CO2 for overnight prior to compound treatment. After 24 h, cells were harvested with PBS, centrifuged at 300×g for 5 mins, and lysed with 100 μL lysis buffer (25 mM 4-(2-hydroxyethyl)-1-piperazineethanesulphonic acid, 300 mM sodium chloride, 1.5 mM magnesium chloride, 0.5% sodium deoxycholate, 20 mM p-glycerophosphate, 1% Triton X-100, 0.1% sodium dodecyl sulphate, 0.2 mM EDTA, 0.5 mM dithiothreitol, 1 mM sodium orthovanadate and 25× protease inhibitor cocktail). Protein lysate was collected after 10 mins of maximum speed centrifugation at 4° C. The protein concentration of cell lysates was determined through performing a BSA standard curve using the Bio-Rad DC protein assay kit II (Bio-Rad, Sydney, NSW, Australia) according to the manufacturer's protocol. 30 μg protein was measured, mixed with 3× loading buffer and denatured at 95° C. for 5 mins using T100 thermal cycler (Bio-Rad). Molecular mass of each sample was then separated by gel electrophoresis on a 4-20% polyacrylamide gel at 120V for 1 h. The resolved proteins were transferred onto nitrocellulose membranes and blocked with 5% skimmed milk in Tris-buffered saline and Tween 20 (TBST) for 1 h at room temperature. […] Band intensity was determined using a ChemiDoc™ multiplexing imaging system (Bio-Rad). […]

[10] = system: GBM cell lines (U87, U251, T98G); test: In vitro tumorigenicity (colony formation) assay; assay type: cell-based; settings: 10 days, crystal violet staining, FIG. 3B
Procedure: as §2
A density of 200 to 400 cells/well was seeded in a twelve-well plate and incubated for overnight prior to compound treatment. […] After 10 days, cells were washed with PBS, fixed and stained with crystal violet staining solution (0.05% crystal violet, 1% formaldehyde, 1% PBS, 1% ethanol); the results are shown in FIG. 3B.

[11] = system: U87 GBM cells; test: Subcutaneous U87 GBM xenograft, single agents; assay type: in vivo
From the text: Compound 1 and compound 2 were also investigated for in vivo antitumour activity in subcutaneous xenograft models. Briefly, U87 GBM cells were harvested and resuspended in a 1:1 mixture of serum-free media and matrigel, and 5×10^6 cells injected subcutaneously into the rear flank of 5-6-week-old CD1 nu/nu female mice. When the mean tumour volume reached 150-200 mm^3, animals were randomised to treatment groups (n=10 per group) and treated orally with vehicle (0.5% carboxymethyl cellulose in water), compound 1 or compound 2 daily for 21 days with the doses shown in FIGS. 5A and 5B. Mice were observed daily for signs of toxicity and weight loss, and tumour volume measured every other day.

[12] = system: GBM patient-derived G4T cells; test: Orthotopic GBM patient-derived G4T xenograft; assay type: in vivo, NSG mice; settings: single agent or with TMZ; p<0.001
Procedure: In a separate study, NSG mice (n=8) orthotopically engrafted with GBM patient-derived G4T cells were administered with vehicle, compound 1, TMZ, and co-treatment of compound 1 and TMZ, respectively, as shown in FIG. 6B. The disease burden of each of the treatment groups was measured by bioluminescent whole-body imaging.

CNc1nc(C)c(-c2nc(Nc3ccc(N4CCC(N(C)C)CC4)cn3)ncc2F)s1 [Compound 1, 5-(2-((5-(4-(dimethylamino)piperidin-1-yl)pyridin-2-yl)amino)-5-fluoropyrimidin-4-yl)-N,4-dimethylthiazol-2-amine]
GI50 [1]: 110 nM | GI50 [2]: 2320 nM | GI50 [3]: 5520 nM | GI50 [4]: 4460 nM | GI50 [5]: 3280 nM | GI50 [6]: 70 nM | GI50 [7]: 620 nM | induction of apoptosis (annexin V/PI) [8]: capable of inducing apoptosis in GBM cells to a greater level than the control anti-cancer agent, palbociclib | level of phosphorylated Rb proteins [9]: reduces the level of phosphorylated Rb proteins | growth and proliferation (colony formation) [10]: inhibits the growth and proliferation of all three GBM cell lines | T/C ([11]; day 21, oral daily for 21 days, vs vehicle, p<0.001): 310% | tumour growth compared to vehicle treatment ([11]; oral daily for 21 days): markedly reduced tumour growth | toxicity ([11]; oral daily for 21 days, observed daily for signs of toxicity and weight loss): without any overt toxicity | inhibition of tumour growth (bioluminescent imaging) [12]: significant inhibition of tumour growth either as a single agent or in combination with TMZ

From US20230181580A1, “TREATMENT OF PROLIFERATIVE DISEASES OF THE CNS” (AUCENTRA THERAPEUTICS PTY LTD, priority 2020, published 2023)
